Source: ChEMBL document CHEMBL1146719, “Lysyl 4-aminobenzoic acid derivatives as potent small molecule mimetics of plasminogen kringle 5” (Bioorg Med Chem Lett, 2004)
Peptide text beside a SMILES is read from it.

Species on record: Homo sapiens
Test: Inhibition of VEGF-stimulated migration of human microvascular endothelial cells
Type: functional, cell-based
Settings: Endothelial cell

IC50: 1.2 nM
SMILES: CC(=O)N[C@@H](CCCCN)C(=O)N[C@@H](CC(C)C)C(=O)N[C@@H](Cc1ccc(O)cc1)C(=O)N[C@@H](CC(=O)O)C(=O)O (Ac-KLYD-OH)
